Each compound was assayed on Human prostate cancer cell lines (PC-3 cells) (assay: Measurement of cell death-inducing activity (Test Example 1)). Conditions: PC-3, 48 h, 48 hours after addition, tested at 10, 1, 0.1, 0.025 and 0.00625 μmol/L, qualitative evaluation of 10 fields, read-out: Concentration showing the cell death-inducing activity (cell death-inducing rate not less than 40%).
Type: cell-based
Protocol: The cell death-inducing activity of the compound represented by the formula (1) or the salt thereof was measured as follows.
Human prostate cancer cell lines (PC-3 cells) were seeded to 6-well plates at 1×10^5 cells/2 mL/well, and cultured in the presence of 5% CO2 at 37° C. for 48 hours. Thereafter, each compound was added thereto so as to provide 10, 1, 0.1, 0.025 and 0.00625 μmol/L. As a control, DMSO was added. After the addition, the cells were continuously cultured for 48 hours. […] When the cell death-inducing rate was not less than 40%, the compound was judged to have the cell death-inducing activity.
In the case of `COc1ccccc1-c1nc(C)c(NC(=O)OCc2ccc(SC)cc2)s1` [Example 9-5], the minimal effective concentration was 10 µM. With `COc1cc(Cl)ccc1-c1nc(C)c(NC(=O)OCc2ccc3c(c2)CCO3)s1` [Example 9-7] the minimal effective concentration was 10 µM. `Cc1ccc(-c2nc(C)c(NC(=O)OCc3ccc4c(c3)CCO4)s2)c(C)c1` [Example 9-8] was tested, and the minimal effective concentration was 10 µM. Work on `COc1cc(Cl)ccc1-c1nc(C)c(NC(=O)OCc2cccc(N(C)C)c2)s1` [Example 9-11] yielded a minimal effective concentration of 10 µM. Work on `Cc1ccccc1-c1nc(C)c(NC(=O)OCc2ccc3c(c2)nnn3C)s1` [Example 9-12] yielded a minimal effective concentration of 1 µM. With `COc1ccccc1-c1nc(C)c(NC(=O)OCc2ccc3c(c2)nnn3C)s1` [Example 9-13] the minimal effective concentration was 0.025 µM. Compound `COc1cc(F)ccc1-c1nc(C)c(NC(=O)OCc2ccc3c(c2)nnn3C)s1` [Example 9-14] has a minimal effective concentration of 0.025 µM. In the case of `COc1cc(Cl)ccc1-c1nc(C)c(NC(=O)OCc2ccc3c(c2)nnn3C)s1` [Example 9-15], the minimal effective concentration was 0.00625 µM. `COc1cc(C)ccc1-c1nc(C)c(NC(=O)OCc2ccc3c(c2)nnn3C)s1` [Example 9-16] gave a minimal effective concentration of 0.00625 µM. `Cc1ccc(-c2nc(C)c(NC(=O)OCc3ccc4c(c3)nnn4C)s2)c(C)c1` [Example 9-17] gave a minimal effective concentration of 0.025 µM. In the case of `Cc1nc(-c2ccc(F)cc2Cl)sc1NC(=O)OCc1ccc2c(c1)nnn2C` [Example 9-18], the minimal effective concentration was 0.1 µM. Compound `Cc1cc(F)ccc1-c1nc(C)c(NC(=O)OCc2ccc3c(c2)nnn3C)s1` [Example 9-19] has a minimal effective concentration of 0.025 µM. In the case of `Cc1cc(Cl)ccc1-c1nc(C)c(NC(=O)OCc2ccc3c(c2)nnn3C)s1` [Example 9-20], the minimal effective concentration was 0.025 µM. `Cc1nc(-c2cccc3c2OCC3)sc1NC(=O)OCc1ccc2c(c1)nnn2C` [Example 9-21] showed a minimal effective concentration of 10 µM. Compound `CCn1nnc2cc(COC(=O)Nc3sc(-c4ccccc4OC)nc3C)ccc21` [Example 9-22] has a minimal effective concentration of 0.025 µM. In the case of `CCn1nnc2cc(COC(=O)Nc3sc(-c4ccc(F)cc4OC)nc3C)ccc21` [Example 9-23], the minimal effective concentration was 0.025 µM. Compound `CCn1nnc2cc(COC(=O)Nc3sc(-c4ccc(Cl)cc4OC)nc3C)ccc21` [Example 9-24] has a minimal effective concentration of 0.00625 µM. With `CCn1nnc2cc(COC(=O)Nc3sc(-c4ccc(C)cc4C)nc3C)ccc21` [Example 9-26] the minimal effective concentration was 0.025 µM. With `CCn1nnc2cc(COC(=O)Nc3sc(-c4ccc(F)cc4C)nc3C)ccc21` [Example 9-27] the minimal effective concentration was 0.025 µM. Work on `CCn1nnc2cc(COC(=O)Nc3sc(-c4ccc(Cl)cc4C)nc3C)ccc21` [Example 9-28] yielded a minimal effective concentration of 0.025 µM. Compound `COc1ccccc1-c1nc(C)c(NC(=O)OCc2ccc3c(ccn3C)c2)s1` [Example 9-29] has a minimal effective concentration of 10 µM. `COc1cc(Cl)ccc1-c1nc(C)c(NC(=O)OCc2ccc3c(ccn3C)c2)s1` [Example 9-30] was tested, and the minimal effective concentration was 1 µM. Compound `Cc1cc(Cl)ccc1-c1nc(C)c(NC(=O)OCc2ccc3c(ccn3C)c2)s1` [Example 9-31] has a minimal effective concentration of 1 µM. For `Cc1nc(-c2ccccc2)sc1NC(=O)OCc1ccc2c(c1)ncn2C` [Example 9-32], the minimal effective concentration was 1 µM. Work on `Cc1ccccc1-c1nc(C)c(NC(=O)OCc2ccc3c(c2)ncn3C)s1` [Example 9-33] yielded a minimal effective concentration of 0.025 µM. In the case of `Cc1ccc(-c2nc(C)c(NC(=O)OCc3ccc4c(c3)ncn4C)s2)cc1` [Example 9-35], the minimal effective concentration was 0.1 µM. For `CCc1ccccc1-c1nc(C)c(NC(=O)OCc2ccc3c(c2)ncn3C)s1` [Example 9-36], the minimal effective concentration was 0.025 µM. Work on `COc1ccccc1-c1nc(C)c(NC(=O)OCc2ccc3c(c2)ncn3C)s1` [Example 9-37] yielded a minimal effective concentration of 0.025 µM. With `COc1cc(F)ccc1-c1nc(C)c(NC(=O)OCc2ccc3c(c2)ncn3C)s1` [Example 9-38] the minimal effective concentration was 0.00625 µM. Compound `COc1cc(Cl)ccc1-c1nc(C)c(NC(=O)OCc2ccc3c(c2)ncn3C)s1` [Example 9-39] has a minimal effective concentration of 0.00625 µM. `COc1cc(C)ccc1-c1nc(C)c(NC(=O)OCc2ccc3c(c2)ncn3C)s1` [Example 9-40] gave a minimal effective concentration of 0.00625 µM. In the case of `COc1ccc(-c2nc(C)c(NC(=O)OCc3ccc4c(c3)ncn4C)s2)c(OC)c1` [Example 9-41], the minimal effective concentration was 0.025 µM. `Cc1ccc(-c2nc(C)c(NC(=O)OCc3ccc4c(c3)ncn4C)s2)c(C)c1` [Example 9-42] showed a minimal effective concentration of 0.00625 µM. `Cc1nc(-c2ccccc2F)sc1NC(=O)OCc1ccc2c(c1)ncn2C` [Example 9-43] gave a minimal effective concentration of 1 µM. Compound `Cc1nc(-c2cccc(F)c2)sc1NC(=O)OCc1ccc2c(c1)ncn2C` [Example 9-44] has a minimal effective concentration of 1 µM. Work on `Cc1nc(-c2ccc(F)cc2)sc1NC(=O)OCc1ccc2c(c1)ncn2C` [Example 9-45] yielded a minimal effective concentration of 1 µM. `Cc1nc(-c2ccc(F)cc2F)sc1NC(=O)OCc1ccc2c(c1)ncn2C` [Example 9-46] was tested, and the minimal effective concentration was 0.1 µM. Work on `Cc1nc(-c2ccc(F)cc2Cl)sc1NC(=O)OCc1ccc2c(c1)ncn2C` [Example 9-47] yielded a minimal effective concentration of 0.025 µM. `Cc1cc(F)ccc1-c1nc(C)c(NC(=O)OCc2ccc3c(c2)ncn3C)s1` [Example 9-48] showed a minimal effective concentration of 0.00625 µM. In the case of `Cc1cc(Cl)ccc1-c1nc(C)c(NC(=O)OCc2ccc3c(c2)ncn3C)s1` [Example 9-49], the minimal effective concentration was 0.00625 µM. Work on `Cc1nc(-c2ccc3c(c2)CCO3)sc1NC(=O)OCc1ccc2c(c1)ncn2C` [Example 9-50] yielded a minimal effective concentration of 10 µM. `CCn1cnc2cc(COC(=O)Nc3sc(-c4ccccc4C)nc3C)ccc21` [Example 9-53] showed a minimal effective concentration of 0.1 µM. With `CCn1cnc2cc(COC(=O)Nc3sc(-c4cccc(C)c4)nc3C)ccc21` [Example 9-54] the minimal effective concentration was 1 µM. For `CCn1cnc2cc(COC(=O)Nc3sc(-c4ccc(C)cc4)nc3C)ccc21` [Example 9-55], the minimal effective concentration was 10 µM. With `CCc1ccccc1-c1nc(C)c(NC(=O)OCc2ccc3c(c2)ncn3CC)s1` [Example 9-56] the minimal effective concentration was 0.025 µM. For `CCn1cnc2cc(COC(=O)Nc3sc(-c4ccc(F)cc4OC)nc3C)ccc21` [Example 9-58], the minimal effective concentration was 0.00625 µM. `CCn1cnc2cc(COC(=O)Nc3sc(-c4ccc(Cl)cc4OC)nc3C)ccc21` [Example 9-59] showed a minimal effective concentration of 0.00625 µM. For `CCn1cnc2cc(COC(=O)Nc3sc(-c4ccc(C)cc4OC)nc3C)ccc21` [Example 9-60], the minimal effective concentration was 0.00625 µM. `CCn1cnc2cc(COC(=O)Nc3sc(-c4ccc(OC)cc4OC)nc3C)ccc21` [Example 9-61] showed a minimal effective concentration of 0.00625 µM. `CCn1cnc2cc(COC(=O)Nc3sc(-c4ccc(C)cc4C)nc3C)ccc21` [Example 9-62] was tested, and the minimal effective concentration was 0.00625 µM. Work on `CCn1cnc2cc(COC(=O)Nc3sc(-c4ccc(F)cc4C)nc3C)ccc21` [Example 9-63] yielded a minimal effective concentration of 0.00625 µM. With `CCn1cnc2cc(COC(=O)Nc3sc(-c4ccc(Cl)cc4C)nc3C)ccc21` [Example 9-64] the minimal effective concentration was 0.00625 µM. `CCCn1cnc2cc(COC(=O)Nc3sc(-c4ccccc4OC)nc3C)ccc21` [Example 9-66] gave a minimal effective concentration of 1 µM. With `CCCn1cnc2cc(COC(=O)Nc3sc(-c4ccc(Cl)cc4OC)nc3C)ccc21` [Example 9-67] the minimal effective concentration was 0.025 µM. Work on `CCCn1cnc2cc(COC(=O)Nc3sc(-c4ccc(C)cc4OC)nc3C)ccc21` [Example 9-68] yielded a minimal effective concentration of 0.1 µM. `CCCn1cnc2cc(COC(=O)Nc3sc(-c4ccc(C)cc4C)nc3C)ccc21` [Example 9-69] gave a minimal effective concentration of 1 µM. For `COc1cc(F)ccc1-c1nc(C)c(NC(=O)OCc2ccc3c(c2)ncn3C(C)C)s1` [Example 9-70], the minimal effective concentration was 0.1 µM. For `COc1cc(Cl)ccc1-c1nc(C)c(NC(=O)OCc2ccc3c(c2)ncn3C(C)C)s1` [Example 9-71], the minimal effective concentration was 0.025 µM. With `COc1ccc(-c2nc(C)c(NC(=O)OCc3ccc4c(c3)ncn4C(C)C)s2)c(OC)c1` [Example 9-72] the minimal effective concentration was 1 µM. In the case of `COc1ccccc1-c1nc(C)c(NC(=O)OCc2ccc3c(c2)nc(C)n3C)s1` [Example 9-74], the minimal effective concentration was 1 µM. `COc1cc(F)ccc1-c1nc(C)c(NC(=O)OCc2ccc3c(c2)nc(C)n3C)s1` [Example 9-75] gave a minimal effective concentration of 0.1 µM. In the case of `COc1cc(Cl)ccc1-c1nc(C)c(NC(=O)OCc2ccc3c(c2)nc(C)n3C)s1` [Example 9-76], the minimal effective concentration was 0.025 µM. Work on `COc1cc(C)ccc1-c1nc(C)c(NC(=O)OCc2ccc3c(c2)nc(C)n3C)s1` [Example 9-77] yielded a minimal effective concentration of 0.025 µM. `Cc1ccc(-c2nc(C)c(NC(=O)OCc3ccc4c(c3)nc(C)n4C)s2)c(C)c1` [Example 9-78] gave a minimal effective concentration of 0.025 µM. In the case of `Cc1nc(-c2ccc(F)cc2Cl)sc1NC(=O)OCc1ccc2c(c1)nc(C)n2C` [Example 9-79], the minimal effective concentration was 0.1 µM. `Cc1cc(F)ccc1-c1nc(C)c(NC(=O)OCc2ccc3c(c2)nc(C)n3C)s1` [Example 9-80] showed a minimal effective concentration of 0.1 µM. In the case of `Cc1cc(Cl)ccc1-c1nc(C)c(NC(=O)OCc2ccc3c(c2)nc(C)n3C)s1` [Example 9-81], the minimal effective concentration was 0.025 µM. For `CCc1nc2cc(COC(=O)Nc3sc(-c4ccc(Cl)cc4OC)nc3C)ccc2n1C` [Example 9-82], the minimal effective concentration was 0.025 µM. `CCc1nc2cc(COC(=O)Nc3sc(-c4ccc(C)cc4C)nc3C)ccc2n1C` [Example 9-83] was tested, and the minimal effective concentration was 0.1 µM. Compound `CCc1ccccc1-c1nc(C)c(NC(=O)OCc2ccc3c(c2)nc(C)n3CC)s1` [Example 9-84] has a minimal effective concentration of 1 µM. Work on `CCn1c(C)nc2cc(COC(=O)Nc3sc(-c4ccccc4OC)nc3C)ccc21` [Example 9-85] yielded a minimal effective concentration of 1 µM. `CCn1c(C)nc2cc(COC(=O)Nc3sc(-c4ccc(Cl)cc4OC)nc3C)ccc21` [Example 9-86] gave a minimal effective concentration of 0.025 µM. For `CCn1c(C)nc2cc(COC(=O)Nc3sc(-c4ccc(C)cc4OC)nc3C)ccc21` [Example 9-87], the minimal effective concentration was 0.025 µM.

Source: patent publication US9200008B2 (ASKA PHARMACEUTICAL CO., LTD., priority 2010, dated 2015)
